pIC50: −log10 of the molar value.
Tests used:
[1] = molecular target: T1, human MAO-B enzyme (Homo sapiens (Human), UniProt P27338); test: Screening of MAO-B activity inhibition (Amplex Red monoamine oxidase assay kit, benzylamine substrate); format: biochemical; conditions: activity assay at 0.001, 0.01, 0.1, 1 and 10 uM
[2] = molecular target: T1, human MAO-B enzyme; test: as above; format: biochemical; conditions: 10 uM of the synthesized compound, pargyline-corrected
Experimental: A stock solution was prepared using a human MAO-B enzyme (purchased from Aldrich) and a Amplex® Red monoamine oxidase assay kit according to a preparation manual. The kit includes a 5× reaction buffer, an Amplex® red reagent (1 mg), HRP, DMSO, H2O2, p-tyramine (substrate of MAO-A, B), benzylamine (substrate of MAO-B), clorgiline (inhibitor of MAO-A), and pargyline (inhibitor of MAO-B). Among these reagents in the kit, benzylamine was used as a substrate for MAO-B, and pargyline was used as an MAO-B inhibitor. A solution as overall substrates was prepared as follows. 200 ul of a solution of 1 mg of Amplex® red sufficiently dissolved in 200 ul of DMSO, 100 ul of a mixed solution of HRP and 1 ml of a 1× buffer, 200 ul of a solution of benzylamine dissolved in 1.2 ml of dH2O were added to 9.5 ml of a 1× buffer to reach a total volume of 10 mL, which is sufficient for 100 wells. 0.5 ul of a mixture of MAO-B inhibitor pargyline and 1 ml of dH2O was put into each well. First, the activity of MAO-B was determined using 10 uM of the synthesized compound.
96 wells were injected with positive and negative types, and the wile type. The positive type included only substrate and hydrogen peroxide, and the negative type included only substrate. For the wild type, corresponding wells were injected with the enzyme, substrate, and MAO-B inhibitor, but with no synthesized compound. Afterward, 2 ul of the synthesized compound (1 mM) was added into each well, and the human MAO-B enzyme was put only into the 1st row of wells. 0.5 ug of the human MAO-B was put into each well along with 100 ul of a 1× buffer. The human MAO-B enzyme was put into the 2nd row of the wells along with 0.5 ul of a pargyline, the MAO-B inhibitor. To reduce an experimental error for accuracy, the test was repeated three times for each compound. After 30 minutes, 100 ul of the substrate solution was added into each well in a darkroom. The test was performed in the darkroom due to light sensitivity of the Amplex® reagent. Finally, a total volume of the reaction solution per well reached 200 ul. After about 2 to 3 hours, chromophoric degrees of the samples were measured. A variation in data values for the 1st and 2nd rows of the wells indicates the pure reaction activity of the MAO-B enzyme with the substrate. Using the samples with the synthesized compound the remaining activity of MAO-B after inhibited by the synthesized compound may be determined. This is because the activities of the other enzymes excluding the MAO-B enzyme may be excluded through this method. Compounds with high inhibitory activity at a concentration of 10 uM were screened from among the synthesized compounds at a compound concentration of 10 uM.

T1 sequence (P27338 whole entry): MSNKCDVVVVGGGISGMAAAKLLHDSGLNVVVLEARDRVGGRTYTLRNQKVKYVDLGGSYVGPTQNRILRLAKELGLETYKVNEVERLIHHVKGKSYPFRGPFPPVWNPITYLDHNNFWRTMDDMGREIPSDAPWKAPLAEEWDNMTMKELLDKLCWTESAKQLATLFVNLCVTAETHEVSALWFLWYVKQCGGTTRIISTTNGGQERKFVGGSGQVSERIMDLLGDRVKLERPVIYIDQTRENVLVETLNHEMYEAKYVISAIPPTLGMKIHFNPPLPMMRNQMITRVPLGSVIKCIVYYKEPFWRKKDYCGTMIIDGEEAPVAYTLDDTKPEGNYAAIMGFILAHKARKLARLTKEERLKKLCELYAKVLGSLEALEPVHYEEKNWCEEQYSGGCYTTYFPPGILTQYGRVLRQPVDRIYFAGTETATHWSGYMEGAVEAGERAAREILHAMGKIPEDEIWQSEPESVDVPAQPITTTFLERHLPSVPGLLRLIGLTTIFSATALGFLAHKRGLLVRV

SMILES | pIC50 [1] | Remaining activity of MAO-B (%) [2] [%]
Fc1ccc(-c2nc3ccc(N4CCCCC4)nc3o2)cc1 [Example 5-45, 2-(4-fluorophenyl)-5-(piperidine-1-yl)oxazolo[5,4-b]pyridine] | 5.00 | 26.5
Brc1ccc(-c2nc3ccc(N4CCCCC4)nc3o2)cc1 [Example 5-47, 2-(4-bromophenyl)-5-(piperidine-1-yl)oxazolo[5,4-b]pyridine] | 7.02 | 28.6
COc1ccc(-c2nc3ccc(N4CCCCC4)nc3o2)cc1 [Example 5-49, 2-(4-methoxyphenyl)-5-(piperidine-1-yl)oxazolo[5,4-b]pyridine] | 5.82 | 15.8
c1ccc(CNc2ccc3nc(-c4ccccc4)sc3n2)cc1 [Example 5-58, N-benzyl-2-phenylthiazolo[5,4-b]pyridine-5-amine] | 2.72 | 60.8
CN(Cc1ccccc1)c1ccc2nc(-c3cccc(Cl)c3)oc2n1 [Example 5-67, N-benzyl-2-(3-chlorophenyl)-N-methyloxazolo[5,4-b]pyridine-5-amine] | 4.17 | 47.3
CN(Cc1ccccc1)c1ccc2nc(-c3ccc(Cl)cc3)oc2n1 [Example 5-68, N-benzyl-2-(4-chlorophenyl)-N-methyloxazolo[5,4-b]pyridine-5-amine] | 5.29 | 24.1
CNc1ccc2nc(-c3ccccc3)sc2n1 [Example 5-74, N-methyl-2-phenylthiazolo[5,4-b]pyridine-5-amine] | 4.80 | 27.2
CNc1ccc2nc(-c3cccc(F)c3)oc2n1 [Example 5-75, 2-(3-fluorophenyl)-N-methyloxazolo[5,4-b]pyridine-5-amine] | 5.01 | 22
CNc1ccc2nc(-c3cccc(Cl)c3)oc2n1 [Example 5-76, 2-(3-chlorophenyl)-N-methyloxazolo[5,4-b]pyridine-5-amine] | 5.52 | 4.4
CNc1ccc2nc(-c3ccc(Cl)cc3)oc2n1 [Example 5-77, 2-(4-chlorophenyl)-N-methyloxazolo[5,4-b]pyridine-5-amine] | 5.52 | 4.14

Source: patent publication US9469653B2, “Pharmaceutical compositions for preventing or treating degenerative brain disease and method of screening the same” (KOREA INSTITUTE OF SCIENCE AND TECHNOLOGY, priority 2011, dated 2016)
